Laboratory results from patent US20250339518A1 (priority 2023, published 2025).

Legend:
Type in all cases: cell-based, murine
[1] = tested on: MB49-STING KO cell line
[2] = tested on: MB49 cells
[3] = tested on: MB49 cells; remark: listed apart in the source
[4] = tested on: MB49-Double KO (MB49 2KO) cell line

CC(C)c1ccc2oc3nc(N)c(C(=O)O)cc3c(=O)c2c1 [Amlexanox]
VAX014-induced IFN-β production, pIRF3/IRF3 ratios and PD-L1/MHC-I surface expression after inhibitor preincubation [1]: nearly to baseline conditions of the untreated control

Cc1ccc2c(=O)c3cccc(CC(=O)O)c3oc2c1C [DMXAA]
Type I IFN (IFN-β) production in culture supernatants [2]: stimulated IFN production | PD-L1 surface expression [3]: able to induce PD-L1 expression | PD-L1 and MHC-I surface expression [1]: loss of PD-L1 and MHC-I | IFN-β production [4]: Complete loss | Surface PD-L1 expression [4]: Complete loss
